Source: article PMC11555678, “Improved Broad Spectrum Antifungal Drug Synergies with Cryptomycin, a Cdc50-Inspired Antifungal Peptide” (ACS Infectious Diseases, 2024)
≈ marks a conversion by molar mass, not a printed value. Read-outs that look alike come from different tables or passages of the source.

What was measured:
[1] = tested on: Cn MRL862; type: cell-based, Cryptococcus neoformans; conditions: RPMI1640, 37 °C, 48 h
Experimental: (§1) All microdilution assays with fungi were carried out in accordance with CLSI protocols from M27 for yeasts and M38 for filamentous fungi, respectively, unless otherwise specified.[64],[65] Briefly, 96-well plates were charged with RPMI1640 media, with operating volume in the first column, 200 μL, and half operating volume, 100 μL, in the remaining wells. Drug stock solution in DMSO was aliquoted into the first well in each row. Half of the volume in the dosed well was serially diluted 2-fold until column 11. Column 11 was used as the negative growth control, and column 12 was used as the positive growth control. ON yeast cultures in YPD were washed twice in DD-H2O, resuspended in PBS, and adjusted to 5000 cfu/mL in RPMI. The 96-well plate was inoculated with 100 μL aliquots of cell suspension per well. Plates were incubated at 37 °C for 2 days.
(§2) To assess drug synergy, the initial media charged to the plate contained the peptide at twice the final operating concentration; the remaining processing steps were identical to the MIC experiment. Upon addition of 100 μL of inoculant, the final operating concentration was achieved. Control MIC plates were prepared alongside drug synergy plates to account for the day-to-day variability in any individual MIC. FIC index is computed using eq 1. All MIC assays and drug synergy assays were completed with two technical replicates per 96-well plate and a minimum of two biological replicates per drug combination. If a difference in MIC between the two technical replicates on the plate were observed, only the higher concentration was reported as the MIC to reduce the possibility of type 1 error (false positive) [drawing 1] 1

[2] = tested on: C. auris B11245; assay: microbe, parasite or virus in culture; type: cell-based, Candida auris; conditions: Candidozyma auris, B11245; compound alone; RPMI1640, 37 °C, 48 h; * = paradoxical growth observed (CAS); read-out: MIC
Procedure, shortened: (§3)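 Yeasts were grown overnight in YPD, washed twice in water, taken up in PBS and diluted to 5000 cfu/mL in RPMI. They were then added to plates holding 2-fold serial drug dilutions in RPMI1640 and incubated at 37 °C for 2 days.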

[3] = tested on: C. neoformans apt1Δ; assay: microbe, parasite or virus in culture; type: cell-based, Cryptococcus neoformans; conditions: Cryptococcus neoformans, 48 h
Procedure, shortened: as §3

[4] = tested on: C. neoformans MRL862; assay: microbe, parasite or virus in culture; type: cell-based, Cryptococcus neoformans; conditions: Cryptococcus neoformans, MRL862; compound alone; RPMI1640, 37 °C, 48 h; read-out: MIC
Procedure, shortened: as §3

[5] = tested on: C. neoformans apt4Δ; assay: microbe, parasite or virus in culture; type: cell-based, Cryptococcus neoformans; conditions: Cryptococcus neoformans, 48 h
Procedure, shortened: as §3

[6] = tested on: C. neoformans H99; assay: microbe, parasite or virus in culture; type: cell-based, Cryptococcus neoformans; conditions: Cryptococcus neoformans, H99, 48 h
Procedure, shortened: as §3

[7] = tested on: C. neoformans crm1Δ; assay: microbe, parasite or virus in culture; type: cell-based, Cryptococcus neoformans; conditions: Cryptococcus neoformans, 48 h
Procedure, shortened: as §3

[8] = tested on: C. neoformans apt3Δ; assay: microbe, parasite or virus in culture; type: cell-based, Cryptococcus neoformans; conditions: Cryptococcus neoformans, 48 h
Procedure, shortened: as §3

[9] = tested on: C. neoformans cdc50Δ; assay: microbe, parasite or virus in culture; type: cell-based, Cryptococcus neoformans; conditions: Cryptococcus neoformans, 48 h
Procedure, shortened: as §3

[10] = tested on: C. neoformans Crm1^OE; assay: microbe, parasite or virus in culture; type: cell-based, Cryptococcus neoformans; conditions: Cryptococcus neoformans, 48 h
Procedure, shortened: as §3

[11] = tested on: C. neoformans apt2Δ; assay: microbe, parasite or virus in culture; type: cell-based, Cryptococcus neoformans; conditions: Cryptococcus neoformans, 48 h
Procedure, shortened: as §3

[12] = tested on: A. fumigatus AF293; assay: microbe, parasite or virus in culture; type: cell-based, Aspergillus fumigatus; conditions: Aspergillus fumigatus, AF293, 48 h
[13] = tested on: C. auris B11245; type: cell-based, Candida auris; conditions: RPMI1640, 37 °C, 48 h, CAS: paradoxical growth; for MIC of antifungal in combination with KKOO: MIC = <20% growth; for MIC of antifungal in combination with KKOO-NH2: MIC = well with <20% growth
Experimental: as §1, §2

[14] = tested on: C. glabrata FKS2-S663P; assay: microbe, parasite or virus in culture; type: cell-based, Candida glabrata; conditions: Nakaseomyces glabratus, FKS2S663P, 48 h
Procedure, shortened: as §3

[15] = tested on: C. glabrata 2001; assay: microbe, parasite or virus in culture; type: cell-based, Candida glabrata; conditions: Nakaseomyces glabratus, 2001; compound alone; RPMI1640, 37 °C, 48 h; read-out: MIC
Procedure, shortened: as §3

[16] = tested on: C. glabrata FKS1-S629P; assay: microbe, parasite or virus in culture; type: cell-based, Candida glabrata; conditions: Nakaseomyces glabratus, FKS1S629P, 48 h
Procedure, shortened: as §3

[17] = tested on: C. albicans SC5413; assay: microbe, parasite or virus in culture; type: cell-based, Candida albicans; conditions: Candida albicans, SC5413; compound alone; RPMI1640, 37 °C, 48 h; read-out: MIC
Procedure, shortened: as §3

[18] = tested on: A. fumigatus AF293; assay: Drug synergy (MIC in peptide-supplemented media); type: cell-based, Aspergillus fumigatus; conditions: RPMI1640, 37 °C, 48 h, CAS: paradoxical growth; for MIC of antifungal in combination with KKOO: MIC = <20% growth; for MIC of antifungal in combination with KKOO-NH2: MIC = well with <20% growth
Experimental: as §1, §2

[19] = tested on: C. albicans SC5413; type: cell-based, Candida albicans; conditions: RPMI1640, 37 °C, 48 h; for MIC of antifungal in combination with KKOO: azole MICs unclear (intermediate phenotype); for MIC of antifungal in combination with KKOO-NH2: azole MICs could not be determined (intermediate phenotype)
Experimental: as §1, §2

`CCC(C)n1ncn(-c2ccc(N3CCN(c4ccc(OCC5COC(Cn6cncn6)(c6ccc(Cl)cc6Cl)O5)cc4)CC3)cc2)c1=O` (stereo not shown) [ITR, itraconazole] was tested, and the “MIC of antifungal in combination with KKOO” value ([1]; +0 μg/mL KKOO (control)) was 0.062 µg/mL, the “MIC of antifungal in combination with KKOO-NH2” value (“MIC … with KKOO-NH2” for short) ([1]; +0 μg/mL KKOO-NH2 (control)) was 0.062 µg/mL and the “MIC … with KKOO-NH2” value ([1]; +1 μg/mL KKOO-NH2) was 0.062 µg/mL. The “MIC of antifungal in combination with KKOO” value ([1]; +1 μg/mL KKOO) was 0.031 µg/mL, the “MIC … with KKOO-NH2” value ([1]; +2 μg/mL KKOO-NH2) was 0.016 µg/mL and the “MIC of antifungal in combination with KKOO” value ([1]; +2 μg/mL KKOO) was 0.016 µg/mL. For the same compound, the “MIC … with KKOO-NH2” value ([1]; +4 μg/mL KKOO-NH2) was 0.004 µg/mL, the “MIC of antifungal in combination with KKOO” value ([1]; +4 μg/mL KKOO) was 0.556 µg/mL and the MIC [2] was 0.5 µg/mL (≈ 0.709 µM). For the same compound, the MIC [3] was 0.5 µg/mL (≈ 0.709 µM), the MIC [4] was 0.031 µg/mL (≈ 0.0439 µM) and the MIC [5] was 0.062 µg/mL (≈ 0.0879 µM). For the same compound, the MIC [6] was 0.125 µg/mL (≈ 0.177 µM), the MIC [7] was 0.062 µg/mL (≈ 0.0879 µM) and the MIC [8] was 0.062 µg/mL (≈ 0.0879 µM). The MIC [9] was 0.002 µg/mL (≈ 0.00283 µM), the MIC [10] was 0.016 µg/mL (≈ 0.0227 µM) and the MIC [11] was 0.125 µg/mL (≈ 0.177 µM). For the same compound, the MIC [12] was 0.125 µg/mL (≈ 0.177 µM), the “MIC of antifungal in combination with KKOO” value ([13]; +0 μg/mL KKOO (control)) was 0.5 µg/mL and the “MIC … with KKOO-NH2” value ([13]; +0 μg/mL KKOO-NH2 (control)) was 0.5 µg/mL. For the same compound, the “MIC … with KKOO-NH2” value ([13]; +1 μg/mL KKOO-NH2) was 0.125 µg/mL, the “MIC of antifungal in combination with KKOO” value ([13]; +1 μg/mL KKOO) was 0.25 µg/mL and the “MIC … with KKOO-NH2” value ([13]; +2 μg/mL KKOO-NH2) was 0.062 µg/mL. For the same compound, the “MIC of antifungal in combination with KKOO” value ([13]; +2 μg/mL KKOO) was 0.062 µg/mL, the “MIC … with KKOO-NH2” value ([13]; +4 μg/mL KKOO-NH2) was 0.016 µg/mL and the “MIC of antifungal in combination with KKOO” value ([13]; +4 μg/mL KKOO) was 0.031 µg/mL. The MIC [14] was 0.125 µg/mL (≈ 0.177 µM), the MIC [15] was 0.5 µg/mL (≈ 0.709 µM) and the MIC [16] was 0.125 µg/mL (≈ 0.177 µM). The MIC [17] was over 1 µg/mL, the “MIC of antifungal in combination with KKOO” value ([18]; +0 μg/mL KKOO (control)) was 0.125 µg/mL and the “MIC … with KKOO-NH2” value ([18]; +0 μg/mL KKOO-NH2 (control)) was 0.125 µg/mL. For the same compound, the “MIC … with KKOO-NH2” value ([18]; +1 μg/mL KKOO-NH2) was 0.125 µg/mL, the “MIC of antifungal in combination with KKOO” value ([18]; +1 μg/mL KKOO) was 0.125 µg/mL and the “MIC … with KKOO-NH2” value ([18]; +2 μg/mL KKOO-NH2) was 0.062 µg/mL. For the same compound, the “MIC of antifungal in combination with KKOO” value ([18]; +2 μg/mL KKOO) was 0.062 µg/mL, the “MIC … with KKOO-NH2” value ([18]; +4 μg/mL KKOO-NH2) was 0.062 µg/mL and the “MIC of antifungal in combination with KKOO” value ([18]; +4 μg/mL KKOO) was 0.062 µg/mL. For the same compound, the “MIC … with KKOO-NH2” value ([18]; +8 μg/mL KKOO-NH2) was 0.031 µg/mL, the “MIC of antifungal in combination with KKOO” value ([19]; +0 μg/mL KKOO (control)) was over 1 µg/mL and the “MIC … with KKOO-NH2” value ([19]; +0 μg/mL KKOO-NH2 (control)) was over 1 µg/mL. The “MIC … with KKOO-NH2” value ([19]; +1 μg/mL KKOO-NH2) was over 1 µg/mL, the “MIC of antifungal in combination with KKOO” value ([19]; +1 μg/mL KKOO) was over 1 µg/mL and the “MIC … with KKOO-NH2” value ([19]; +2 μg/mL KKOO-NH2) was over 1 µg/mL. For the same compound, the “MIC of antifungal in combination with KKOO” value ([19]; +2 μg/mL KKOO) was over 1 µg/mL, the “MIC … with KKOO-NH2” value ([19]; +4 μg/mL KKOO-NH2) was over 1 µg/mL and the “MIC of antifungal in combination with KKOO” value ([19]; +4 μg/mL KKOO) was over 1 µg/mL. The “MIC of antifungal in combination with KKOO” value ([19]; +8 μg/mL KKOO) was over 1 µg/mL.
